These results are taken from ChEMBL document CHEMBL1909046, “DrugMatrix in vitro pharmacology data”.

Data set [1] is described as follows: DRUGMATRIX: Glutamate, NMDA, Agonism radioligand binding (ligand: [3H] CGP-39653). Type of data set: cell membranes, Rattus norvegicus, Wistar, Cerebral cortex, Membrane. The following applies: Not Active = under 50% inhibition at 10 µM.
Another data set has as its target T1, Thromboxane-A synthase (Homo sapiens, UniProt P24557).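 Note: enzyme inhibition assay with PGH2 supplied as substrate; in other assays of this panel Not Active means under 50% inhibition at 10 µM.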
T1 sequence (P24557 whole entry): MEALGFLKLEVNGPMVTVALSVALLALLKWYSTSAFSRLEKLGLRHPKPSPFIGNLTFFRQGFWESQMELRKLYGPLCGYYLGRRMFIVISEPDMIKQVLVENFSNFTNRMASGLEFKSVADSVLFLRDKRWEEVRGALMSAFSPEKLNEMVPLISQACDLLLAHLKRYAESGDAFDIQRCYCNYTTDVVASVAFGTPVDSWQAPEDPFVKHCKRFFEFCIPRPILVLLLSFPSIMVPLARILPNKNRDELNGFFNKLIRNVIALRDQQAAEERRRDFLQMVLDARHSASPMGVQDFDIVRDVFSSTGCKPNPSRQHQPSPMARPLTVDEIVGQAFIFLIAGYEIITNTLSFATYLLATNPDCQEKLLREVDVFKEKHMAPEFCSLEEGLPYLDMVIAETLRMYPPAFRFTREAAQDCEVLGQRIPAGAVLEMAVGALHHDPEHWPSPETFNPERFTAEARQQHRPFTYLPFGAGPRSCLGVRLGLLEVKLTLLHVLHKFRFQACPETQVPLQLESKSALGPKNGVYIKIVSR
Briefly: biochemical. Type of data set: tissue-based, Platelet.

Data set [2] concerns the target Sigma non-opioid intracellular receptor 1 (Homo sapiens, UniProt Q99720). Briefly: DRUGMATRIX: Sigma1 radioligand binding (ligand: [3H] Haloperidol). The conditions noted are these: Not Active = under 50% inhibition at 10 µM. Type of data set: cell membranes, Jurkat, Membrane.
Data set [3] concerns the target Voltage-gated inwardly rectifying potassium channel KCNH2 (Homo sapiens, UniProt Q12809). The conditions noted are these: hek293. Note: in other assays of this panel Not Active means under 50% inhibition at 10 µM.
Data set [4] has as its target Platelet-activating factor receptor (Homo sapiens, UniProt P25105). The data set can be described thus: biochemical. The class given is tissue-based. The conditions noted are these: platelet. Note: in other assays of this panel Not Active means under 50% inhibition at 10 µM.
The target in data set [5] is T2, Receptor-type tyrosine-protein phosphatase C (Homo sapiens, UniProt P08575).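 Note: inhibition of CD45 enzyme activity measured using DiFMUP as substrate; in other assays of this panel Not Active means under 50% inhibition at 10 µM.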
T2 sequence (P08575 whole entry): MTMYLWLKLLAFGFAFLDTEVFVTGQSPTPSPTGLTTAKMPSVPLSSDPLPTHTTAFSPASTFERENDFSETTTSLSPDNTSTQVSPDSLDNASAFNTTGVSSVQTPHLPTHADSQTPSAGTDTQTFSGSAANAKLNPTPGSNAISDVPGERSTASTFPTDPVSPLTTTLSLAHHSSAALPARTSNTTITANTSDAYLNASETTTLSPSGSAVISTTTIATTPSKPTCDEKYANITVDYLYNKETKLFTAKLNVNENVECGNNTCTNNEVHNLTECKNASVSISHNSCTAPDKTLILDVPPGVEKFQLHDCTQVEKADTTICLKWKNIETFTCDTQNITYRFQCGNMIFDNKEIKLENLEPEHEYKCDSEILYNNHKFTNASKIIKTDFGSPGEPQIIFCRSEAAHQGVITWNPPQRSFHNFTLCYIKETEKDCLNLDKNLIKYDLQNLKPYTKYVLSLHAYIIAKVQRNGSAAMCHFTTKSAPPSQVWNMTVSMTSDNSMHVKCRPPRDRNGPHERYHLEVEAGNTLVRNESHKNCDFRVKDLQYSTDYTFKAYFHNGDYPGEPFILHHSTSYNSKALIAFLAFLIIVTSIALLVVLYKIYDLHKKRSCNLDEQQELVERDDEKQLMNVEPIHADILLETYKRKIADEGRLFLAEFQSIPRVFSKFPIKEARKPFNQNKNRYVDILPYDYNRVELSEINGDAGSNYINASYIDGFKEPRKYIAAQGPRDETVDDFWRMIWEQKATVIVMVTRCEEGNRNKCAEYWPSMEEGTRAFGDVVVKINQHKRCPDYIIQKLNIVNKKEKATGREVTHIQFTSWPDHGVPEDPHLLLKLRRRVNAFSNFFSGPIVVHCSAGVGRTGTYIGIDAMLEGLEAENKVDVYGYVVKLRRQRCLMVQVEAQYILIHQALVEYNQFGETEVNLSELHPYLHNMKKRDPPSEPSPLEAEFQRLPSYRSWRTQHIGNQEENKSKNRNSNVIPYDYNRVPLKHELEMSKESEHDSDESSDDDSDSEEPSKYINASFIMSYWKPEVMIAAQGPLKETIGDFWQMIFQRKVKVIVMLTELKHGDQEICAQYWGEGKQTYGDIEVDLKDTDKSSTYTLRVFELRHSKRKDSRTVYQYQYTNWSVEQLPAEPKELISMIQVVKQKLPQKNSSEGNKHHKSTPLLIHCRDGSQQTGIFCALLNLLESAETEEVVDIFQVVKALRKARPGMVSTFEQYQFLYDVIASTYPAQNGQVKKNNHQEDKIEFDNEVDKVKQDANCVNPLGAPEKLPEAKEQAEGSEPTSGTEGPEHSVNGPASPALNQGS
The arrangement: species or system Escherichia coli.

For data set [6], the target named is Sodium-dependent noradrenaline transporter (Homo sapiens, UniProt P23975). Briefly: DRUGMATRIX: Norepinephrine Transporter radioligand binding (ligand: [125I] RTI-55). Type of data set: cell membranes, MDCK, Membrane. The conditions noted are these: mdck; Not Active = under 50% inhibition at 10 µM.
Sequence of Sodium-dependent noradrenaline transporter (P23975 whole entry): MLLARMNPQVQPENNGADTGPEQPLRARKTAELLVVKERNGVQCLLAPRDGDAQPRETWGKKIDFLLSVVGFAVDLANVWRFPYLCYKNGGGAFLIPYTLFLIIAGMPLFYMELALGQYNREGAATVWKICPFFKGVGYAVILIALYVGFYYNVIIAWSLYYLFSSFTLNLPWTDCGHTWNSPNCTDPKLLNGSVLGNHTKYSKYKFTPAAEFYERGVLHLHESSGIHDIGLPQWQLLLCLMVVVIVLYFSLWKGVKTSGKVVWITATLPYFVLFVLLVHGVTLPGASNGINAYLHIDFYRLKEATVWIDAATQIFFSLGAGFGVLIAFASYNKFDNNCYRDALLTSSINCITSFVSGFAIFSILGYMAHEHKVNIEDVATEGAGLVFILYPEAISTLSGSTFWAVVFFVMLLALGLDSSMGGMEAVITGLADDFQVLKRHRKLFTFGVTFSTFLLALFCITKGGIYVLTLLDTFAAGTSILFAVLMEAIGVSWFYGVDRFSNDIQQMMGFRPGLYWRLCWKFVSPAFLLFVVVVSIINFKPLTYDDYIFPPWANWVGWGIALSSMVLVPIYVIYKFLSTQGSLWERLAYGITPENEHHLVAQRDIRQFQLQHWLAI
Data set [7] concerns the target T3, 5-hydroxytryptamine receptor 2C (Homo sapiens, UniProt P28335).
T3 sequence (P28335 whole entry): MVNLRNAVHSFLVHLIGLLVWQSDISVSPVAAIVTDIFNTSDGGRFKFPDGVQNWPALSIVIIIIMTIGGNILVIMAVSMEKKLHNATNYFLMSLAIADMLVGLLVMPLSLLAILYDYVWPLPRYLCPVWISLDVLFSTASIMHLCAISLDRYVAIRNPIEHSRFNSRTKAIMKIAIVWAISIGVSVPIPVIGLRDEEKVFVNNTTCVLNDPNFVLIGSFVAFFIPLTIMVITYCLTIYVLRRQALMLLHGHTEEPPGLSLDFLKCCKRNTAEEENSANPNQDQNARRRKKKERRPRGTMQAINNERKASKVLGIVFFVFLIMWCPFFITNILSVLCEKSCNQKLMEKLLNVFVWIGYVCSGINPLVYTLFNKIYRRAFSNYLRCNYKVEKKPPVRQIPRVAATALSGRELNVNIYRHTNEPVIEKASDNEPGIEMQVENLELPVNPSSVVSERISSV
The data set can be described thus: DRUGMATRIX: Serotonin (5-Hydroxytryptamine) 5-HT2C radioligand binding (ligand: [3H] Mesulergine). The following applies: Not Active = under 50% inhibition at 10 µM. Type of data set: cell membranes, CHO-K1, Membrane.

The target of the next data set is Adenosine receptor A2a (Homo sapiens, UniProt P29274). Briefly: DRUGMATRIX: Adenosine A2A radioligand binding (ligand: […]). Type of data set: cell membranes, HEK293, Membrane. The following applies: hek293; Not Active = under 50% inhibition at 10 µM.
Sequence of Adenosine receptor A2a (P29274 whole entry): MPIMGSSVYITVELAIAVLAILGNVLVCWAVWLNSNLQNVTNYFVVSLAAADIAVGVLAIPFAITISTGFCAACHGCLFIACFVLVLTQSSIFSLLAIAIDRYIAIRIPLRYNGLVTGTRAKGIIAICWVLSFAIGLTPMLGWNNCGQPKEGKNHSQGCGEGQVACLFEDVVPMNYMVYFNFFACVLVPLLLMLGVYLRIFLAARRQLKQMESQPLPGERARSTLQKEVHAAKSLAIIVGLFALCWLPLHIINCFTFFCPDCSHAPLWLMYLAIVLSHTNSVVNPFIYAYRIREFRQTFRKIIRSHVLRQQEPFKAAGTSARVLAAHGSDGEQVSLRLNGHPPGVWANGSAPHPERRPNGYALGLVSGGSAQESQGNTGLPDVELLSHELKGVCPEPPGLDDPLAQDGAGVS
The nature of data set [8]: DRUGMATRIX: Atrial Natriuretic Factor (ANF) radioligand binding (ligand: [125I] ANF (rat)). The following applies: Not Active = under 50% inhibition at 10 µM. Type of data set: cell membranes, Cavia porcellus, Dunkin-Hartley, Adrenal gland, Membrane.

Sequence of Sigma non-opioid intracellular receptor 1 (Q99720 whole entry): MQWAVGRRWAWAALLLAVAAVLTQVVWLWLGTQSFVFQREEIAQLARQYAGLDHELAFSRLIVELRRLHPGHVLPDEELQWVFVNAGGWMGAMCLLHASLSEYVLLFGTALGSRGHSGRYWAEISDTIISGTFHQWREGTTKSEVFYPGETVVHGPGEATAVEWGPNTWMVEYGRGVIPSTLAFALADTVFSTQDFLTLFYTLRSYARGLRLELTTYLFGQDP
Sequence of Voltage-gated inwardly rectifying potassium channel KCNH2 (Q12809 whole entry): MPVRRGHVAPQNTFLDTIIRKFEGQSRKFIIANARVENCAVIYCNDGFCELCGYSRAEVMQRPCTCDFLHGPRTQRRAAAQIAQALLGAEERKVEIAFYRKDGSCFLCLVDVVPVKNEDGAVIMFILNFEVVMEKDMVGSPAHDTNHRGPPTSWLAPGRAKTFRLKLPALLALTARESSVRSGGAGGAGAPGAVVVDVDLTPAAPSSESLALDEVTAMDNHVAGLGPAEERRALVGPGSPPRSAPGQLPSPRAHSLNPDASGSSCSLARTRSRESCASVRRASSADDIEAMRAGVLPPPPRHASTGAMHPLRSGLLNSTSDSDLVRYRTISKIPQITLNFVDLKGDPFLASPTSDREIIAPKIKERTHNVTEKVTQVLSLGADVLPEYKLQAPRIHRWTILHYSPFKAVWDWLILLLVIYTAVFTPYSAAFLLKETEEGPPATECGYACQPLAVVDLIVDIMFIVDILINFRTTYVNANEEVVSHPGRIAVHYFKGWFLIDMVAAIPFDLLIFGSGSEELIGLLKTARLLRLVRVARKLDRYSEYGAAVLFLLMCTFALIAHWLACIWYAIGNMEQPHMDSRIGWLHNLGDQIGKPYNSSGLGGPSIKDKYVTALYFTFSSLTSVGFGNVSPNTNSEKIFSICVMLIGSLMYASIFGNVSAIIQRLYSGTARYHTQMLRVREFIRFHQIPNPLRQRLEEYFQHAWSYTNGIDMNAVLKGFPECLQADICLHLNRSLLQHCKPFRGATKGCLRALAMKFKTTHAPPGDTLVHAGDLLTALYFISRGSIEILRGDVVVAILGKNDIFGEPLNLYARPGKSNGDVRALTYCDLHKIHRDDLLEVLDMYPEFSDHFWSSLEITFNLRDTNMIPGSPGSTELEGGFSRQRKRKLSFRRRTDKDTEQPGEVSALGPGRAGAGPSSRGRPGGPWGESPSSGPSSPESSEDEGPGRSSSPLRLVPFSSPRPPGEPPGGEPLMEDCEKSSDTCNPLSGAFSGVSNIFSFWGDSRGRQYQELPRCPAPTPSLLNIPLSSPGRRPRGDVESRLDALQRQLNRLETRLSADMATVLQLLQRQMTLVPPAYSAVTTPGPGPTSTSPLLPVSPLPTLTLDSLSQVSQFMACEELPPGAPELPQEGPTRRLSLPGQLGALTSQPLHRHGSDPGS
Sequence of Platelet-activating factor receptor (P25105 whole entry): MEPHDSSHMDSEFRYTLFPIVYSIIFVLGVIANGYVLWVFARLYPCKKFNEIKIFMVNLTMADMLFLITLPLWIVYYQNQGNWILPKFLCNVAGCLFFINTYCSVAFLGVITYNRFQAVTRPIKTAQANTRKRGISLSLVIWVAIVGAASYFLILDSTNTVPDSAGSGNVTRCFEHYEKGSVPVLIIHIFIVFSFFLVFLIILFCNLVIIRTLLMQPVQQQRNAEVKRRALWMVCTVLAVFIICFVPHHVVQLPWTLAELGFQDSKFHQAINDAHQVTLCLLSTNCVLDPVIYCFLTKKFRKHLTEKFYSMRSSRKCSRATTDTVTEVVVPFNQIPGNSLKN

The term IC50 denotes the concentration needed to halve the response being measured. What is called Ki is a measure of affinity in units of concentration, obtained from inhibition or displacement. With `CC(=O)OCC(=O)[C@@]1(OC(C)=O)[C@@H](C)C[C@H]2[C@@H]3C[C@H](F)C4=CC(=O)C=C[C@]4(C)[C@@]3(F)[C@@H](O)C[C@@]21C` [DIFLORASONE DIACETATE], the IC50 entry (in [1]; against Thromboxane-A synthase (platelet); in data set [2] (jurkat); in [3]; in data set [4]; in data set [5]) was “Not Active” in each case. Moreover, the IC50 result (in data set [6]; in [7] (cho-k1); on Adenosine receptor A2a; in data set [8]) was “Not Active” each time. Moreover, the Ki result in [1], in [3] and in data set [8] was “Not Active” throughout.

With `CCc1ccc(C(=O)C(C)CN2CCCCC2)cc1` (stereo not drawn) [EPERISONE], the concentration for half-maximal inhibition (IC50) entry was “Not Active” in [1]; “Not Active” at Thromboxane-A synthase (platelet); 4.05 nM in data set [2] (read-out: IC50); “Not Active” in [3]; “Not Active” in data set [4]; “Not Active” in data set [5]. For the same compound, the IC50 result (in data set [6]; in [7] (cho-k1); at Adenosine receptor A2a; in [8]) was “Not Active” in each case. Besides, the inhibitory constant (Ki) result was “Not Active” in data set [1], 1.7 nM in [2] (read-out: Ki), “Not Active” in data set [3] and “Not Active” in [8].

As to `C=C1CC[C@H](O)C/C1=C/C=C1\CCC[C@]2(C)[C@@H]([C@H](C)/C=C/[C@H](C)C(C)C)CC[C@@H]12` [ERGOCALCIFEROL], the IC50 entry (in data set [1]; on Thromboxane-A synthase (platelet); in data set [2] (jurkat); in data set [3]; in data set [4]; in data set [5]) was “Not Active” each time. For the same compound, the IC50 result (in data set [6]; in [7] (cho-k1); at Adenosine receptor A2a; in data set [8]) was “Not Active” throughout. Further, the Ki entry in data set [1], in [3] and in [8] was “Not Active” in each case.

With `CN1C[C@H](C(=O)N[C@]2(C)O[C@@]3(O)[C@@H]4CCCN4C(=O)[C@H](Cc4ccccc4)N3C2=O)C=C2c3cccc4[nH]cc(c34)C[C@H]21` [ERGOTAMINE], the IC50 result in data set [1] was “Not Active”; on Thromboxane-A synthase (read-out: IC50), 3060 nM; in data set [2] (jurkat), “Not Active”; in data set [3], “Not Active”; in [4] it was “Not Active”; in data set [5] it was “Not Active”. The IC50 entry in data set [6] is “Not Active”; in data set [7] (read-out: IC50), 56 nM; on Adenosine receptor A2a, “Not Active”; in [8] it was “Not Active”. Also, the Ki entry was “Not Active” in [1], “Not Active” in data set [3], 29 nM in data set [7] (read-out: Ki) and “Not Active” in data set [8].

As to `CCc1cccc2c3c([nH]c12)C(CC)(CC(=O)O)OCC3` (stereo not drawn) [ETODOLAC], the IC50 entry (in data set [1]; on Thromboxane-A synthase (platelet); in data set [2] (jurkat); in data set [3]; in [4]; in [5]) was “Not Active” each time. Also, the half-maximal inhibitory concentration (IC50) result (in [6]; in data set [7] (cho-k1); on Adenosine receptor A2a; in [8]) was “Not Active” in each case. The Ki result in [1], in data set [3] and in data set [8] was “Not Active” throughout.

Consider `Nc1nc(=O)[nH]cc1F` [FLUCYTOSINE], for which the IC50 result (in data set [1]; against Thromboxane-A synthase (platelet); in [2] (jurkat); in data set [3]; in [4]; in data set [5]) was “Not Active” each time. Also, the IC50 entry (in data set [6]; in data set [7] (cho-k1); on Adenosine receptor A2a; in data set [8]) was “Not Active” each time. Moreover, the inhibition constant Ki entry in data set [1], in data set [3] and in data set [8] was “Not Active” throughout.

Take `O=C1OC2(c3ccc(O)cc3Oc3cc(O)ccc32)c2ccccc21` [FLUORESCEIN]: the half-maximal inhibitory concentration (IC50) entry (in data set [1]; at Thromboxane-A synthase (platelet); in data set [2] (jurkat); in data set [3]; in [4]; in [5]) was “Not Active” throughout. The IC50 entry (in data set [6]; in [7] (cho-k1); on Adenosine receptor A2a; in data set [8]) was “Not Active” in each case. The Ki result in [1], in [3] and in data set [8] was “Not Active” in each case.
